Measurements from patent US20240091366A1, “NOVEL ACID-SENSITIVE APTAMER TRIPTOLIDE CONJUGATE AND APPLICATIONS” (priority 2022, published 2024).
Values joined by “and” are separate entries in the source; they are usually repeats but may differ in a detail not shown here. Equal entries are not always repeated.

Key:
[1] = system: colon cancer cell line HCT116; assay: MTT assay, cell proliferation inhibition; type: cell-based; conditions: Homo sapiens, 48 h
From the text: (§1) Material: aptamer triptolide conjugate (AS1411-TP). Triptolide (TP) was provided by Shanghai Yaji Biotechnology Co. Ltd; aptamer (AS1411) was obtained from Chengdu Pilot Drug Development Co. Ltd; trypsin, thiazolyl blue (MTT) (Biofroxx, Germany); dimethyl sulfoxide (DMSO) (MP Biomedicals, France); fetal bovine serum (FBS) (Newzerum, New Zealand); DMEM medium, RPMI1640 medium, Petri dishes, 96-well plates (Corning, USA); colon cancer cells HCT116, breast cancer cells MDA-MB-231, non-small-cell lung cancer cells A549, pancreatic cancer cells PANC-1, and hepatocellular carcinoma cells HepG2 were purchased from the Shanghai Cell Bank of the Chinese Academy of Sciences and preserved in the laboratory.
(§2) Take the tumor cells HCT116, MDA-MB-231, A549, PANC-1 and HepG2 cell lines from the liquid nitrogen tank, place them in a 37° C. water bath, wait for the frozen cells to melt into cell suspension, centrifuge the cells at 1000 r/min for 3 min, discard the supernatant, add 1 ml of fresh complete medium containing 10% fetal bovine serum and 1% double antibody to mix the cells, then add 5 ml of medium, gently and repeatedly blowing the cells with a pipette gun to make them mix well. Then add 5 ml of medium, blow the cells gently and repeatedly with a pipette gun to mix them well, and finally transfer the cell suspension to a […] and label the cell name, cell number, date of resuscitation and the operator's name, and place it in a cell culture incubator for cultivation. (HCT116, PANC-1 and HepG2 cell lines were cultured in DMEM medium, while MDA-MB-231 cell line and A549 cell line were cultured in RPMI1640 medium).
(§3) Take HCT116, MDA-MB-231, A549, PANC-1, HepG2 cells with good growth status, remove the medium, add 1 ml of sterile PBS to wash, add 1.5 ml of trypsin to digest the cells, about 2 min later the cells become round and fall off, add 1.5 ml of medium to terminate the digestion, transfer it to centrifugal tube, centrifuge at 1000 r/min for 3 min, discard the supernatant, add 1 ml of fresh medium to resuspend, then add fresh medium for 1:3 distribution to other culture dishes, and label the date of transmission and the number of generations. Place in the cell culture incubator for cultivation.
(§4) Take HCT116, MDA-MB-231, A549, PANC-1, HepG2 cells with good growth status, by the same operation as the cell passaging experiment, after cell resuspension, cell counting with hemocyte counting plate, with 2500 cells/well, plant in 96-well plate, after 24 h of cell culture, remove the original medium, add medium containing different concentrations of drugs and continue to cultivate for 48 hours. After 24 h of cell culture, the original medium was removed and the medium containing different concentrations of drugs was added to continue the culture for 48 hours. […] The above steps were repeated three times.

[2] = system: breast cancer cell line MDA-MB-231; assay: MTT assay, cell proliferation inhibition; type: cell-based; conditions: 48 h
From the text: as §1, §2, §3, §4

[3] = system: lung adenocarcinoma cell line A549; assay: MTT assay, cell proliferation inhibition; type: cell-based; conditions: 48 h
From the text: as §1, §2, §3, §4

[4] = Body weight during administration, breast cancer model; conditions: mouse, in vivo
Method: Specific experimental protocol: Female nude mice were reared for 6-7 weeks under standard environment, breast cancer cells MDA-MB-231 were suspended in serum-free medium, and each mouse was inoculated with 6*10^6 tumor cells. When the tumor volume reached 50-100 mm^3, the mice were randomly divided into 4 groups, and were injected with aptamer triptolide conjugate, triptolide, and aptamer by tail vein, respectively, 12 mice in each group. A PBS negative control group was set up. […] The drugs were administered once every 2 days for 8 consecutive doses, and the experiment was ended 24 hours after the last dose. At the end of the experiment, the animals were executed by breaking the cervical vertebrae, and the tumors were stripped and weighed to calculate the tumor growth inhibition rate of the drug. The t-test was used to compare the tumor weight, tumor volume, RTV and other indexes of the animals in each group.

Compound: CC(C)[C@]12O[C@H]1[C@@H]1O[C@]13[C@]1(O[C@H]1C[C@H]1C4=C(CC[C@@]13C)C(=O)OC4)[C@@H]2O [TP, Triptolide]
- inhibition at 0.0063 µM ([1]; HCT-116, 48 h, HCT116, 6.3 nM, samples 1-3, read-out: cell proliferation inhibition rate): 24.7%
- inhibition at 0.0125 µM ([1]; HCT-116, 48 h, HCT116, 12.5 nM, samples 1-3, read-out: cell proliferation inhibition rate): 42.1%
- inhibition at 0.025 µM ([1]; HCT-116, 48 h, HCT116, 25.0 nM, samples 1-3, read-out: cell proliferation inhibition rate): 54.9%
- inhibition at 0.05 µM ([1]; HCT-116, 48 h, HCT116, 50.0 nM, samples 1-3, read-out: cell proliferation inhibition rate): 75.6%
- inhibition at 0.1 µM ([1]; HCT-116, 48 h, HCT116, 100.0 nM, samples 1-3, read-out: cell proliferation inhibition rate): 83%
- inhibition at 0.2 µM ([1]; HCT-116, 48 h, HCT116, 200.0 nM, samples 1-3, read-out: cell proliferation inhibition rate): 97.2%
- IC50 ([1]; HCT-116, colon cancer cells HCT116, MTT): 18.88 ± 0.13 nM
- inhibition at 0.0031 µM ([2]; Homo sapiens, MDA-MB-231, 48 h, MDA-MB-231, 3.1 nM, samples 1-3, read-out: cell proliferation inhibition rate): 14.6%
- inhibition at 0.0063 µM ([2]; Homo sapiens, MDA-MB-231, 48 h, MDA-MB-231, 6.3 nM, samples 1-3, read-out: cell proliferation inhibition rate): 25.7%
- inhibition at 0.0125 µM ([2]; Homo sapiens, MDA-MB-231, 48 h, MDA-MB-231, 12.5 nM, samples 1-3, read-out: cell proliferation inhibition rate): 31.7%
- inhibition at 0.025 µM ([2]; Homo sapiens, MDA-MB-231, 48 h, MDA-MB-231, 25.0 nM, samples 1-3, read-out: cell proliferation inhibition rate): 42.1%
- inhibition at 0.05 µM ([2]; Homo sapiens, MDA-MB-231, 48 h, MDA-MB-231, 50.0 nM, samples 1-3, read-out: cell proliferation inhibition rate): 71.5%
- inhibition at 0.1 µM ([2]; Homo sapiens, MDA-MB-231, 48 h, MDA-MB-231, 100.0 nM, samples 1-3, read-out: cell proliferation inhibition rate): 83%
- inhibition at 0.2 µM ([2]; Homo sapiens, MDA-MB-231, 48 h, MDA-MB-231, 200.0 nM, samples 1-3, read-out: cell proliferation inhibition rate): 98.1%
- IC50 ([2]; Homo sapiens, breast cancer cells MDA-MB-231, MTT): 22.4 ± 0.24 nM
- cell proliferation inhibition rate ([2]; MDA-MB-231, 3.1 nM, samples 1-3, 0.0031 µM): 11.4171 and 14.3285
- cell proliferation inhibition rate ([2]; MDA-MB-231, 6.3 nM, samples 1-3, 0.0063 µM): 23.5657 and 26.9811
- cell proliferation inhibition rate ([2]; MDA-MB-231, 12.5 nM, samples 1-3, 0.0125 µM): 36.7429 and 35.2571
- cell proliferation inhibition rate ([2]; MDA-MB-231, 25.0 nM, samples 1-3, 0.025 µM): 49.4400 and 45.9563
- cell proliferation inhibition rate ([2]; MDA-MB-231, 50.0 nM, samples 1-3, 0.05 µM): 73.2000 and 76.9811
- cell proliferation inhibition rate ([2]; MDA-MB-231, 100.0 nM, samples 1-3, 0.1 µM): 86.0800 and 88.6718
- cell proliferation inhibition rate ([2]; MDA-MB-231, 200.0 nM, samples 1-3, 0.2 µM): 94.2971 and 93.2186
- cell proliferation inhibition rate ([3]; A549, 6.3 nM, samples 1-3, 0.0063 µM): 16.7429 and 15.2571
- cell proliferation inhibition rate ([3]; A549, 12.5 nM, samples 1-3, 0.0125 µM): 29.4400 and 25.9563
- cell proliferation inhibition rate ([3]; A549, 25.0 nM, samples 1-3, 0.025 µM): 43.2000 and 46.9811
- cell proliferation inhibition rate ([3]; A549, 50.0 nM, samples 1-3, 0.05 µM): 66.0800 and 68.6718
- cell proliferation inhibition rate ([3]; A549, 100.0 nM, samples 1-3, 0.1 µM): 84.2971 and 83.2186
- cell proliferation inhibition rate ([3]; A549, 200.0 nM, samples 1-3, 0.2 µM): 97.0057 and 96.3263
- inhibition at 0.0063 µM ([3]; Homo sapiens, A549, 48 h, A549, 6.3 nM, samples 1-3, read-out: cell proliferation inhibition rate): 13.7%
- inhibition at 0.0125 µM ([3]; Homo sapiens, A549, 48 h, A549, 12.5 nM, samples 1-3, read-out: cell proliferation inhibition rate): 22.1%
- inhibition at 0.025 µM ([3]; Homo sapiens, A549, 48 h, A549, 25.0 nM, samples 1-3, read-out: cell proliferation inhibition rate): 41.5%
- inhibition at 0.05 µM ([3]; Homo sapiens, A549, 48 h, A549, 50.0 nM, samples 1-3, read-out: cell proliferation inhibition rate): 63%
- inhibition at 0.1 µM ([3]; Homo sapiens, A549, 48 h, A549, 100.0 nM, samples 1-3, read-out: cell proliferation inhibition rate): 80.1%
- inhibition at 0.2 µM ([3]; Homo sapiens, A549, 48 h, A549, 200.0 nM, samples 1-3, read-out: cell proliferation inhibition rate): 99.2%
- IC50 ([3]; Homo sapiens, lung adenocarcinoma cells A549, MTT): 30.23 ± 0.17 nM
- body weights of mice [4]: basically maintained in the tolerable range of animal toxicity and side-effects
